Test results taken from patent US11661259B2, “Apparatus, arrangement and method for providing skin care ingredients” (MEMORIAL SLOAN-KETTERING CANCER CENTER, priority 2013, dated 2023).

Tests used:
[1] = Time required to completely dissolve Vitamin C powder in water; format: physicochemical
From the text: 1. Determine the amount of time required to completely dissolve Vitamin C powder with 12 to 15 cc of water. In general, it requires 45 to 120 seconds to completely dissolve 1% to 15% Vitamin C powder in water.

[2] = Decay of vitamin stored in liquid solution (loss of initial activity); conditions: dissolved in a liquid solution, stored in a closed and dark container, after 60 days

Time to completely dissolve ([1]; 1% to 15% Vitamin C powder in water) [s]	Time to completely dissolve ([1]; 1 wt % Vitamin C, 151 mg in 15 g water) [s]	Time to completely dissolve ([1]; 5 wt % Vitamin C, 526 mg in 12 g water) [s]	Time to completely dissolve ([1]; 10 wt % Vitamin C, 1107 mg in 12 g water) [s]	Time to completely dissolve ([1]; 15 wt % Vitamin C, 1765 mg in 12 g water) [s]	Time to completely dissolve ([1]; 20 wt % Vitamin C, 2496 mg in 12 g water) [s]	loss of initial activity [2] [%]	Molecule
45 to 120	60	45	75	120	210	~72	O=C1O[C@H]([C@@H](O)CO)C(O)=C1O [Vitamin C, L-ascorbic acid]
						~35	tocopherol [Vitamin E]
